We go through four compounds from patent publication US9610359B2, “Methods and compositions related to annexin 1-binding compounds” (Burnham Institute for Medical Research, priority 2009, dated 2017).

No end group written: not given here.

The test system of experiment [1] is Mouse Lewis lung carcinoma (LLC) tumors. In words: subcutaneous Lewis lung carcinoma tumor model. The format is in vivo. Conditions: 0.13 μmoles iv. On the procedure: (§1) FIGS. 6A and 6B show the effect of IF7-GA on melanoma, lung carcinoma, prostate cancer, and breast cancer mouse models. A, Effect of IF7-GA on tumor size. […] Mice were euthanised on day 15 to measure tumor weight. […] Mice were euthanised on day 13 and tumors weighed. (c) Human prostate cancer PC3 tumors were grown orthotopically in the prostate of SCID mice. On day 7, each mouse was injected intravenously with the compounds as in A-a, and injections administered every 4 days, for a total of four injections, until day 22. Mice were euthanised on day 28 and tumors weighed. (d) Human breast cancer MDA-MB-231 tumors were grown orthotopically in fat pads of SCID mice. On day 7, each mouse was injected intravenously with the compounds as in A-a, and injections performed every 4 days, for a total of four injections, until day 22. […] B, Histochemistry of tumors from the mice intravenously injected with the compounds described in A. Apoptotic tumor cells along blood vessels in transplanted tumors are detected by TUNEL assay. […]
(§2) Mouse melanoma B16F1 cells (2×10^5 cells/100 μl serum-free DMEM) were injected subcutaneously into the dorsal flank of C57BL/6 female mice (8-10 weeks old). […] On day 15, mice were sacrificed and tumor weights determined. […] On day 13, mice were sacrificed and tumor weights determined. […] On day 28, mice were sacrificed and prostate tumor weights determined. […]

The test system of experiment [2] is Mouse melanoma B16F1 tumors. The format is in vivo. The settings on record: B16 melanoma, 0.13 μmoles iv.
Description: (a) Mouse melanoma B16F1 tumors were grown subcutaneously in C57BL6 mice. On day 10, each mouse was injected intravenously with either 100 μl of 5% glucose or that containing 0.13 μmoles of each IF7, GA, or IF7-GA. Injections were administered every other day, for a total of three injections, until day 14. […] B, Histochemistry of tumors from the mice intravenously injected with the compounds described in A. Apoptotic tumor cells along blood vessels in transplanted tumors are detected by TUNEL assay. B16 melanoma (a), LLC lung carcinoma (b), PC3 prostate tumor (c) and MDA-MB-231 breast tumor (d) from mice treated with each compound.
Injections were administered every other day, for a total of 7 injections, until day 26, as shown by arrows.
Experiment [3] deals with Human breast cancer MDA-MB-231 tumors. The experiment in a line: orthotopic MDA-MB-231 breast cancer model in SCID mice. The format is in vivo. The settings on record: MDA-MB-231 breast tumor, 0.13 μmoles iv. Here is the method: as §1, §2
Experiment [4] concerns Human prostate cancer PC3 tumors. In words: orthotopic PC3 prostate cancer model in SCID mice. The format is in vivo. Conditions: 0.13 μmoles iv. On the procedure:
as §1, §2

In the next experiment the test system is normal lung. Conditions: through pre-mRNA splicing factors; cited from earlier work.
Experiment [5] relates to annexin 1 (Anxa1) fragment. Conditions: cited from earlier work.
In experiment [6] the test system is carbohydrate-dependent cancer cell colonization to the lung. Conditions: synthetic peptide injected intravenously into mice; cited from earlier work.
For the next experiment, the system named is B16 tumor vasculature. The experiment in a line: targeting and penetration in B16 tumor vasculature after intravenous injection. The format is in vivo. The settings on record: B16 tumor-bearing mouse. Here is the method:
(§3) A. Binding of IF7C(RR)-conjugated FITC-polylysine on the surface of mouse endothelial F-2 cells cultured in vitro. B. Transport of […] FITC-poly-L-lysine through apical surface to basal space of F-2 cells monolayer. F-2 cells cultured on a filter of trans well insert was added with IF7C(RR)-conjugated FITC-poly-L-lysine to allow the reagent being bound to apical cell surface of F-2 cells. After washing the monolayer with medium, insert was placed in wells containing medium at 37° C. or at 4° C. Fluorescence moved to the lower chamber of insert was measured. C. Targeting and penetration of intravenously injected IF7C(RR)-conjugated FITC-poly-L-lysine in the B16 tumor in vivo in the mouse. Tissue section was immunostained for endothelial cell marker CD31.
(§4) Thus IFLLWQR-C-RR (SEQ ID NO: 17) or IF7C(RR) was synthesized. […] The cytoplasmic and nuclear FITC signals are consistent with the localization of Anxa1 in the cytoplasm and nucleus (Gerke, 2005 #5299). […] (FIG. 12B). […] To determine if the binding and transport of IF7C(RR) occur in vivo in the tumor vasculature, IF7C(RR)-conjugated FITC-poly-L-lysine was injected intravenously into a B16 tumor-bearing mouse. […] Small molecules such as SN-38 conjugated with IF7C(RR) can penetrate to the tumor deeper and faster than the large molecule such as poly-L-lysine.

In experiment [7] the test system is Anxa1-expressing mouse endothelial F-2 cells. In words: binding to the surface of F-2 cells cultured in vitro. The format is cell-based. Here is the method:
as §3, §4

The next experiment has as its system F-2 cells monolayer. In words: transport through F-2 cell monolayer in trans well chamber. The format is cell-based, mouse. On the procedure: as §3, §4
The next experiment deals with T1, Anxa1-His6 protein (Homo sapiens, UniProt P04083).
T1 construct: Full-length cDNA encoding Anxa1 was obtained from Invitrogen (Carlsbad, Calif.) and subcloned into pET29a vector; His6 (C); made in house; host or cells: bacteria (pET29a vector, Novagen)
T1 sequence (P04083 1-346): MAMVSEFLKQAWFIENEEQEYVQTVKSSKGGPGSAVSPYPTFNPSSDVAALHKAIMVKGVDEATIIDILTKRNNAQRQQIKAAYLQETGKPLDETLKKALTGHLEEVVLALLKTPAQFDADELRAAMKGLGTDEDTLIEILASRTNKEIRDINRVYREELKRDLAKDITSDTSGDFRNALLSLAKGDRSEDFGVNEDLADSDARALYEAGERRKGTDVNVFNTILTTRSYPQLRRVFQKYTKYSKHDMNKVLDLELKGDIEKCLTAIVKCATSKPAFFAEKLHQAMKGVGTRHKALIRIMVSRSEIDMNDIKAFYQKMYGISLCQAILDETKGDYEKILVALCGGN
In words: inhibition of binding of FITC-labeled polyacrylamide-LeA oligosaccharide to Anxa1-His6. An excerpt: (§5) FIGS. 1A-1H show the essential role of annexin 1 (Anxa1) in tumor growth and identification of a peptide sequence with tumor vasculature targeting activity in vivo. A and B. Growth of B16 tumors subcutaneously injected into Anxa1(+/−) and Anxa1(−/−) mutant mice. C. Histology of B16 tumors produced in Anxa1(+/−) and Anxa1(−/−) mice. Each scale bar represents 2.00 mm. D. Immunohistochemistry of B16 tumors for CD31 showing endothelial cells and vasculature. Each scale bar represents 200 μm. E. In vivo phage targeting in B16 tumor-bearing mice. Numbers of transformed colonies recovered from the tumor or lung were determined. […] F. In vivo tumor and organ targeting activity of IFLLWQR (SEQ ID NO:2) displaying phage. Phage was injected into B16 tumor bearing mice pre-injected with anti-Anxa1 antibody or with control rabbit IgG. G. In vitro plate assay for binding of IF7-A488 (upper line) and control RQ7-A488C (lower line) to recombinant […] protein produced by bacteria. H. Effect of IF7 (upper line) and control RQ7 (lower line) on binding of FITC-labeled polyacrylamide-LeA oligosaccharide to Anxa1-His6 protein.
Full-length cDNA encoding Anxa1 was obtained from Invitrogen (Carlsbad, Calif.) and subcloned into pET29a vector (Novagen) to produce an […] fusion protein. […] After washing the plate, fluorescence was measured by a Molecular Devices Analyst HT plate reader. […]

Experiment [8] concerns the target T2, Anxa1-His protein (Homo sapiens, UniProt P04083).
T2 construct: Full-length cDNA encoding Anxa1 was obtained from Invitrogen (Carlsbad, Calif.) and subcloned into pET29a vector; His6 (C); made in house; host or cells: bacteria (pET29a vector, Novagen)
T2 sequence (P04083 1-346): T1 sequence (P04083 1-346)
In words: surface plasmon resonance on Anxa1 coated chip. The format is binding. Conditions: qualitative. Here is the method: IASys (Affinity Sensors, Cambridge, UK) was used. Anxa1-His protein was immobilized on the sensor chip by cross-linking to the aminosilane surface using bis[sulfosuccinimidyl] substrate (Pierce). Binding of IF7C dissolved in TBSC was recorded for 2 min, and dissociation of IF7C was initiated by adding TBSC to the sensor chip and the arc second was recorded for 5 min.

The subject of another experiment is B16 tumor. The experiment in a line: in vivo phage targeting in B16 tumor-bearing mice. More on the design: species or system mouse.
Description: as §5
Mouse melanoma B16F1 cells (2×10^5 cells/100 μl PBS) were injected subcutaneously into the dorsal flank of C57BL/6 female mice (8-10 weeks old). […] Colonies appearing on an agar plate after culturing at 37° C. for 20 hours were counted.

Experiment [9] addresses T2, Anxa1-His protein. The experiment in a line: isothermal titration calorimetry (ITC) with Anxa1-His protein. The format is binding. The settings on record: qualitative. Here is the method: ITC was performed on a VP-ITC calorimeter from Microcal (Northampton, Mass.). In this analysis IF7K3C peptide or […] (SEQ ID NO:12), in which IF7 was modified by inserted with three lysine residues between IF7 and C to increase solubility in water. Eight μl aliquots of solution containing 1.0 or 1.5 mM were injected into the cell containing 100 or 150 μM Anxa1-His protein. In each experiment 37 injections were made. The experiments were performed at 23° C. in buffer containing 20 mM Tris pH 7.9, 250 mM NaCl, 1 mM CaCl2 and 10% dimethylsulfoxide. Experimental data were analyzed using Microcal Origin software provided by the ITC manufacturer (Microcal, Northampton, Mass.).
Background: Isothermal titration calorimetry measures the heat released or taken up as one component is titrated into another.

Consider `CO[C@H]1/C=C\C=C(/C)C(=O)NC2=CC(=O)C(NCCCNC(=O)CCCN3C(=O)C=CC3=O)=C(C[C@@H](C)C[C@H](OC)[C@H](O)[C@@H](C)/C=C(\C)[C@@H]1OC(N)=O)C2=O` [GA, 17-GMB-APA-GA, reference compound], for which the “apoptosis of perivascular tumor cells (TUNEL)” value in experiment [1], in [3] and in experiment [4] was “rarely show apoptosis” each time. Moreover, in experiment [2], the “apoptosis of perivascular tumor cells (TUNEL, histochemistry)” value was “rarely show apoptosis”.

“IELLQAR [I-peptide, selectin ligand mimicry peptide]”: in the experiment on normal lung, the “targeting to normal lung” value was “also targets to normal lung”. For the same compound, the “binding to annexin 1 fragment” value in experiment [5] was “bound to an annexin 1 (Anxa1) fragment”. For the same compound, the “cancer cell colonization to the lung” value in [6] is on record as “inhibited carbohydrate-dependent cancer cell colonization to the lung”.

In the case of “IF7C(RR)-conjugated FITC-poly-L-lysine: IF7C(RR) conjugated to FITC-poly-L-lysine (IFLLWQRCRR; also: conjugated to FITC-poly-L-lysine, site not given here)”, the “localization of fluorescence in tumor tissue sections” value with B16 tumor vasculature is “green fluorescence signals around the abluminal area of the vasculatures”. Also, the “binding to the surface of F-2 cells” value in experiment [7] is reported as “bound to the surface of Anxa1-expressing mouse endothelial F-2 cells”. In the experiment on F-2 cells monolayer (4° C.), the “transport of fluorescence to the lower chamber at 4° C.” value is “not at 4 °C”. For the same compound, the “transport of fluorescence to the lower chamber at 37° C.” value in the experiment with F-2 cells monolayer (37° C.) is given as “fluorescence migrated to the lower chamber”.

On to “IFLLWQR (annexin-1 binding compound) [IF7]”, for which the “inhibition of fucosylated carbohydrate (LeA) binding to Anxa1” value with Anxa1-His6 protein is “inhibited by IF7”. The “binding to Anxa1 by surface plasmon resonance” value with Anxa1-His protein [8] is recorded as “confirmed”. Moreover, the “apoptosis of perivascular tumor cells (TUNEL)” value in [1], in experiment [3] and in [4] was “rarely show apoptosis” throughout. The “apoptosis of perivascular tumor cells (TUNEL, histochemistry)” value in experiment [2] is on record as “rarely show apoptosis”. The “targeting to the lung in tumor-bearing mice” value in the experiment with B16 tumor (mouse, in vivo) is recorded as “could not be detected”. For the same compound, the “organ targeting of intravenously injected phage clone” value in the experiment with B16 tumor (tumor versus lung, B16 tumor-bearing mice) is reported as “targets tumor but not lung tissue”. For the same compound, the “binding to Anxa1 by isothermal titration assay” value with Anxa1-His protein [9] was “confirmed”.
